In patent US11358972B2, “Pentacyclic heterocycles” (Eisai R&D Management Co., Ltd., priority 2019, dated 2022):

Key:
[1] = test system: Choline Acetyltransferase (ChAT) mRNA; assay: Measurement of choline acetyltransferase (ChAT) mRNA expression levels in the rat septal area; assay type: in vivo; conditions: po, 1 mg/kg orally, SD male rats, medial septum, 24 hours after administration, read-out: Amount (%) increased from the amount of ChAT mRNA expression levels in the vehicle administration group
Experimental: Measurement of Choline Acetyltransferase (ChAT) mRNA Expression Levels in the Rat Septal Area (1) Compound Administration
In this study, Sprague-Dawley male rats (Charles River Laboratories Japan, Inc.) with a body weight of about 250 to 350 g were used. The test compound was dissolved in 0.01 mol/L hydrochloric acid, and orally administered.
At 24 hours after the administration of the compound, the whole brain tissue was collected under pentobarbital anesthesia. The medial septum was isolated from whole brain on ice and frozen with liquid nitrogen, and then stored at −80° C.
(3) Measurement of ChAT mRNA Expression Levels
For RNA purification, RNeasy™ Plus Mini Kit (#74136: QIAGEN) was used in this study. RNA purification was performed by the method described in the kit After RNA purification, the total RNA concentration was measured by using QIAxpert Instrument (QIAGEN). cDNA was synthesized using SuperScript™ VILO™ cDNA Synthesis Kit (#11754: Thermo Fisher Scientific). The synthesis of cDNA was performed by the method described in the kit. The synthesized cDNA was diluted 4 times with RNase free water, and the diluted cDNA solution was used as a sample. Taqman™ Universal PCR Master Mix (#4304437: Thermo Fisher Scientific), Taqman™ Gene Expression Assays, INVENTORIED (#4331182: Thermo Fisher Scientific), RNase free water, and the cDNA solution were mixed in amounts of 10 μL, 1 μL, 4 μL, and 5 μL, respectively, and the resulting mixture was used as a measurement sample solution. Quantitative polymerase chain reaction (qPCR) was conducted using ABI PRISM™ 7900HT (Thermo Fisher Scientific) by a fluorescence probe method. Analysis was performed by SDS 2.4 (Thermo Fisher Scientific). The results were calculated by the percentage of the amount of ChAT mRNA expression levels in the compound administration group increased from the amount of ChAT mRNA expression levels in the vehicle administration group.

[2] = test system: Rat primary septal neuron culture; assay: Measurement of acetylcholine (ACh) release in the rat primary septal neuron culture system; assay type: cell-based; conditions: 24 h, rat primary septal neurons, with NGF, ACh release measured by HPLC one day after compound addition, read-out: Concentration (μM) showing a 20% or more increase from the amount of ACh in the control group
Excerpt: Measurement of Acetylcholine (ACh) Release in the Rat Primary Septal Neuron Culture System
(1) Rat Primary Septal Neuron Culture
The septal area was isolated from Sprague-Dawley (SD) rats (Charles River Laboratories Japan, Inc.) at a fetal age of 18 days, and cultured. Specifically, fetuses were removed from pregnant rats under isoflurane anesthesia. The brain was extracted from each fetus, and immersed in ice-cooled L-15 medium (11415-064, Thermo Fisher Scientific). The septal area was dissected from the extracted brain under a stereoscopic microscope. The dissected septal area was treated in 0.25% trypsin (15050-065, Thermo Fisher Scientific) and 0.01% DNase (D5025-150KU, Sigma) at 37° C. for 30 minutes, thereby dispersing the cells. In this case, the enzyme reaction was terminated by adding inactivated horse serum (26050-088, Thermo Fisher Scientific). The enzyme-treated solution was centrifuged at 1000 rpm for 3 minutes, and the supernatant was removed. A medium in an amount of 10 mL was added to the obtained cell mass. The medium used was Dulbecco's Modified Eagle's Medium (044-29765, WAKO) supplemented with N2 supplement (17502-048, Thermo Fisher Scientific), 1 mM sodium pyruvate (11360-070, Thermo Fisher Scientific), and Penicillin-Streptomycin (15140-1221, Thermo Fisher Scientific). The cells of the cell mass to which the medium was added were redispersed by gentle pipetting, and then centrifuged again at 1000 rpm for 3 minutes, and the supernatant was removed. The medium in an amount of 10 mL was added to the obtained cell mass, and the cell dispersion was filtered through a 40-μm nylon mesh (Cell Strainer) to remove the cell mass, thereby obtaining a neuronal cell suspension. The neuronal cell suspension was diluted with the medium, and 10% inactivated bovine serum (26140-079, Thermo Fisher Scientific) and 10% inactivated horse serum were added. Thereafter, 100 μL/well of the suspension was seeded in a 96-well plate (354461, CORNING) pre-coated with poly-D-lysine so that the initial culture density was 1.2×10^5 cells/cm^2. After the seeded cells were cultured under 5% CO2-95% air in a 37° C. incubator for 2 days, the entire medium was replaced with 120 μL of fresh medium, and the cells were subsequently cultured for 5 days.
On the 7th day of culture, compounds were added in the following manner. A solution of the test compound in DMSO was diluted with the medium so that the concentration was 10 times higher than the final concentration. Nerve Growth Factor (450-01, PEPRO TECH, INC.) was prepared at […]. These two solutions were added each in an amount of 15 μL/well, and the mixture was mixed well. The final DMSO concentration was 0.1% or less. Moreover, only DMSO and NGF were added to the control group.
(3) ACh Release Measurement
One day after the compound addition, an amount of ACh release was measured by HPLC in the following manner. A warmed buffer was added at 100 μL/well to the well after the medium was eliminated, and the buffer was immediately removed. Thereafter, a buffer to which 10 μm choline, 10 μm physostigmine, and 6 mM KCl were added was added at 120 μL/well. The buffer was prepared by adding 125 mM NaCl, 25 mM 4-(2-hydroxyethyl)-1-piperazineethanesulfonic acid, 1.2 mM KH2PO4, 1.2 mM MgSO4, 2.2 mM CaCl2 (2H2O), and 10 mM glucose to sterilized water, and the final pH of the solution was set to 7.4. After the 96-well plate to which the buffer was added was incubated under 5% CO2-95% air in a 37° C. incubator for 40 minutes, 80 μL of buffer was collected. An internal standard solution IPHC (5×10^−7 M) was added in an amount of 6 μL to the collected buffer, and the buffer was transferred to a tube for HPLC measurement and subjected to HPLC measurement. […]

Row | SMILES | change in vivo at 1 mg/kg [1] [%] | minimal effective concentration [2] [µM]
1 | CN1Cc2nc3c(oc4cc(F)ccc43)c(=O)n2[C@@H]2CCC[C@H]2C1=O [Example 5, (3aR,14aR)-10-fluoro-5-methyl-3,3a,5,6-tetrahydro-1H-benzofuro[3′,2′:4,5]pyrimido[1,2-a]cyclopenta[f][1,4]diazepine-4,13(2H,14aH)-dione] | 54.1 | 0.03
2 | CN1CCc2c(sc3nc4n(c(=O)c23)C(C)(C)CC(=O)N2C[C@H](F)C[C@H]42)C1 [Example 10, (2R,15bR)-2-fluoro-7,7,12-trimethyl-1,2,3,6,7,10,11,12,13,15b-decahydro-5H,9H-pyrido[4″,3″:4′,5′]thieno[2′3′:4,5]pyrimido[1,2-a]pyrrolo[2,1-c][1,4]diazepine-5,9-dione] | 50.6 | 0.03
